Entries after “also recorded” stand apart in the source; their conditions may differ.
Assays:
Jurkat cells = experiment: Effect on Jurkat cell viability / growth; assay type: cell-based; details: 10 μM
Protocol: Compounds can be tested to determine whether they are cytotoxic or cytostatic. To test whether a compound which inhibits OKT-3-mediated stimulation of tyrosine phosphorylation has a cytotoxic effect on Jukat cells, its effect on the growth of Jurkat cells is tested.

p56^lck = p56^lck (Homo sapiens, UniProt P06239); experiment: p56^lck kinase activity (general statement); assay type: biochemical
[1] = system: OKT-3 activated Jurkat cells; experiment: Jurkat cell activation-dependent phosphorylation (OKT-3, anti-phosphotyrosine western blot); assay type: cell-based; details: for effect on tyrosine phosphorylation of Jurkat cellular proteins, dose response: OKT-3, 0.1, 1, 10 and 100 μM; for effect on cellular tyrosine phosphorylation stimulated by OKT-3: compound 100 μM, 5 min at 37° C.
Protocol: Phosphorylation in Jurkat cells activated by the monoclonal antibody, OKT-3, is correlated with T-cell activation.
A. Compounds are tested for their effect on OKT-3 activated Jurkat cells. OKT-3 is a monoclonal antibody against CD3-ε chain. Treatment of Jurkat cells with OKT-3 antibody for 5 min at 37° C. activates Jurkat cells and induces tyrosine phosphorylation of several cellular proteins. […] Experiments are carried out to determine if compounds of the invention, or known compounds which can serve as standards, affect cellular tyrosine phosphorylation stimulated by OKT-3 in Jurkat cells.
The assay is performed as follows: Jurkat cells (1×10^6 cells) in RPMI 1640 supplemented with 10% fetal bovine serum (FBS) are treated with OKT-3 antibody (0.2 μg) and compounds (100 μM) for 5 min at 37° C. Cultures are immediately placed on ice after the incubation period, washed 3 times with cold PBS and lysed in 20 μl of SDS-sample buffer. Samples are briefly sonicated and boiled for 5 min and applied to SDS-PAGE (12% gel). After SDS-PAGE, proteins are blotted onto Immobilon P membrane (Millipore) for western blot analysis. Membranes are blocked overnight with 5% dried milk in TBST (Tris buffered saline containing 1% triton X-100). After washing, blots are incubated with monoclonal anti-phosphotyrosine antibody for 1 h in TBST followed by 1 hr incubation with horseradish peroxidase (HRP)-conjugated goat anti-mouse IgG. Blots are developed using enhanced chemiluminescence (ECL, Pierce).
The assay is performed as follows: Western blot analyses using anti-phosphotyrosine antibody are performed. Compounds (e.g., inventive compounds I′, II′ and III′) are added at concentrations of 0.1, 1, 10 and 100 μM. Cells are cultured as above.

[2] = system: IL-2 production in Jurkat cells; experiment: Inhibition of IL-2 production in OKT-3 treated Jurkat cells (RIA); assay type: cell-based, human
Protocol: Interleukin 2 (IL-2) is an autocrine growth factor for T cells, the production of which requires T cell antigen receptor and co-receptor generated activation signals in normal T cells. The production of IL-2 is a hallmark of T cell activation signaling, leading to the clonal expansion of antigen-specific T cell clones. In Jurkat cells, treatment of cells with OKT-3 leads to the production of IL-2. […] For example, about 50% inhibition of IL-2 production is observed when cells are treated with 10 μM compound III′ at the time of OKT-3 treatment. […] Unlike the complete inhibition of OKT-3 induced tyrosine phosphorylation, the inhibition of IL-2 production by compound III′ is partial.
The assay is performed as follows: Jurkat cells (1×10^6 cells) are treated with OKT-3 antibody (0.2 μg) in the presence or absence of compounds (e.g., Compound III′) (0.1, 1 and 10 μM) for 24 h in RPMI 1640+10% FBS. At the end of the incubation period, culture media are harvested and assayed for human IL-2 by RIA. Cells treated with OKT-3 only and PMA+Ionomycin serves as a positive control. Untreated cells serve as a negative control. IL-2 production is not detected in untreated cells. Cells treated with 10 μM of Compound III′ are shown to inhibit IL-2 production by 44%. The standard deviation is 0.23 pg/ml.

Chain of p56^lck (P06239 whole entry): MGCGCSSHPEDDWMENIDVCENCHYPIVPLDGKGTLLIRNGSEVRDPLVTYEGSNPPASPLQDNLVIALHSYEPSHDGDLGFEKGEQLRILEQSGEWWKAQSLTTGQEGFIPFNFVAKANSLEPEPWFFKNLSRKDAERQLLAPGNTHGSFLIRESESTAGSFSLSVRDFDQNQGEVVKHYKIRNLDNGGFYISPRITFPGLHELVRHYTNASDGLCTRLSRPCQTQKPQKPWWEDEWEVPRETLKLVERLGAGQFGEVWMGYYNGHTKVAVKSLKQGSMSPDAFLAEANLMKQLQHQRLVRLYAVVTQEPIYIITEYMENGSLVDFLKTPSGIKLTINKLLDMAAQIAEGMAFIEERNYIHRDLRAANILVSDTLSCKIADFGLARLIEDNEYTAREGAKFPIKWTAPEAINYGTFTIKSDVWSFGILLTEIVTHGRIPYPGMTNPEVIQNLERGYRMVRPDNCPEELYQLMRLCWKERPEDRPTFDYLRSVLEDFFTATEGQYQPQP

| Structure (SMILES) | cytotoxic effect on Jurkat cells (Jurkat cells) | effect on the growth of Jurkat cells (Jurkat cells) | time after addition of compound at which Jurkat cells resume normal rate of growth (Jurkat cells) | effect on p56^lck kinase activity (p56^lck) | effect on tyrosine phosphorylation at the lowest concentration ([1]; OKT-3, 0.1 μM) | effect on tyrosine phosphorylation of Jurkat cellular proteins, dose response [1] | effect on cellular tyrosine phosphorylation stimulated by OKT-3 [1] | inhibition at 10 µM ([2]; Homo sapiens, Jurkat, 24 h, 10 μM, at the time of OKT-3 treatment) | effect on IL-2 production at lower concentrations ([2]; lower concentrations (0.1, 1 μM), OKT-3, 24 h) |
| --- | --- | --- | --- | --- | --- | --- | --- | --- | --- |
| O=C(Sc1ccccn1)c1ccc(Oc2ccc(Cl)cc2Cl)c([N+](=O)[O-])c1 [Compound III′] | no cytotoxic effect is observed | some cytostatic effect | 24 h | inhibits p56^lck kinase activity | inhibits tyrosine phosphorylation | completely inhibits tyrosine phosphorylation of cellular proteins | inhibitory activity | ~50% | no observable effect |
| CC(=O)OCc1cccc2cccc(Sc3ccccc3C(=O)O)c12 [Compound I′] |  |  |  | activates p56^lck kinase activity |  | significantly stimulate tyrosine phosphorylation of Jurkat cellular proteins in a dose-dependent manner; also recorded: dose-dependent stimulation of tyrosine phosphorylation | stimulatory activity |  |  |

— patent US7521463B2, “Immunomodulatory compounds” (University of Maryland, Baltimore, priority 2000, dated 2009)
